A word on the EC50: it is the midpoint of the concentration-response curve. Low readings indicate a more potent agent, high ones a less potent agent.

Structures are written as SMILES.

Experimental findings from article doi:10.1101/2025.10.30.685166v1 (biorxiv, 2025) are described below.

The target of assay [1] is T1, Hco-UNC-49B homomeric channel (Haemonchus contortus, UniProt D6BK80).
T1 sequence (D6BK80 22-496): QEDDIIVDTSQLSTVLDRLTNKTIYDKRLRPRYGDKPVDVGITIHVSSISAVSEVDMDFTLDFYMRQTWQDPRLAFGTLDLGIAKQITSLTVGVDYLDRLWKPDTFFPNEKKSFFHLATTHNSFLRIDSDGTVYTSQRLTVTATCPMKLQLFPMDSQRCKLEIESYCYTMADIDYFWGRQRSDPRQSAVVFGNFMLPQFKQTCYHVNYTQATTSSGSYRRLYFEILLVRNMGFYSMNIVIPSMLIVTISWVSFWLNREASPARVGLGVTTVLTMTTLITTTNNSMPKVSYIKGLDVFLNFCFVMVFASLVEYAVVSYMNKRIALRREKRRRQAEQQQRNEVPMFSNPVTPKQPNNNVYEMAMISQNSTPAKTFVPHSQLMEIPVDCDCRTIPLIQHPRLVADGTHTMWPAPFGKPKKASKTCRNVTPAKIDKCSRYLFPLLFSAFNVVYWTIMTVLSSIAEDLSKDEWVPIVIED
In words: cell-based.

Assay [2] deals with T2, Hco-UNC-49B/Hco-UNC-49C heteromeric channel (Haemonchus contortus, UniProt D6BJF3+D6BK80).
T2 sequence (D6BK80 22-496): T1 sequence (D6BK80 22-496)
T2 sequence (D6BJF3 22-440): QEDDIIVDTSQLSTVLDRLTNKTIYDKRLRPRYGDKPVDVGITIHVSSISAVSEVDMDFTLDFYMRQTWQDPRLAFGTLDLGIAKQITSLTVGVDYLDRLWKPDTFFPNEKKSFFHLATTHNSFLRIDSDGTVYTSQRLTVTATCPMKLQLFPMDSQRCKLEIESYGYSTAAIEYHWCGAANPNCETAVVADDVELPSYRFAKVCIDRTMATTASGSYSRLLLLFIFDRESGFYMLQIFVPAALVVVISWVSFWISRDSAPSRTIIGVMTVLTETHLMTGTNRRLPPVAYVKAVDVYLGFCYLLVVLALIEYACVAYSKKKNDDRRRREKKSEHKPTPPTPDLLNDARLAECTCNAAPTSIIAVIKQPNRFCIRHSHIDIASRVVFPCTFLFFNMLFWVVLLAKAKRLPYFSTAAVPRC
In words: cell-based.

In the case of `NCCCC(=O)O` [GABA], the results for the concentration giving a half-maximal response (EC50) in assay [1] and in assay [2] were 137 ± 7 µM and 84.9 ± 4 µM, respectively.
